Experimental data taken from ChEMBL document CHEMBL4118166, “Design, synthesis and evaluation of potent and selective inhibitors of mono-(ADP-ribosyl)transferases PARP10 and PARP14” (Bioorg Med Chem Lett, 2018).
In brackets after ≈: the same amount, converted by molar mass.

What was measured:
[1] = Thermodynamic solubility of the compound in phosphate buffer at pH 7.4 after 24 hrs by HPLC/UV based shake flask method; assay type: physicochemical; settings: read-out: Therm_solubility
[2] = Metabolic stability in mouse liver microsomes assessed as compound remaining level at 5 uM after 2 hrs in presence of G-6-P, G-6-PDH, MgCl2 and NADP+ by LC-MS/MS analysis; assay type: ADME, microsome; settings: read-out: Stability
[3] = Metabolic stability in mouse liver microsomes compound remaining level at 5 uM in absence of co-factors after 2 hrs by LC-MS/MS analysis; assay type: ADME, microsome; settings: read-out: Stability
[4] = target: T1, Protein mono-ADP-ribosyltransferase PARP10 (Homo sapiens, UniProt Q53GL7); test: Inhibition of full length recombinant His6-tagged human PARP10 expressed in Escherichia coli BL21(DE3) preincubated for 15 mins followed by biotinylated NAD+ addition by chemiluminescence assay
T1 sequence (Q53GL7 whole entry): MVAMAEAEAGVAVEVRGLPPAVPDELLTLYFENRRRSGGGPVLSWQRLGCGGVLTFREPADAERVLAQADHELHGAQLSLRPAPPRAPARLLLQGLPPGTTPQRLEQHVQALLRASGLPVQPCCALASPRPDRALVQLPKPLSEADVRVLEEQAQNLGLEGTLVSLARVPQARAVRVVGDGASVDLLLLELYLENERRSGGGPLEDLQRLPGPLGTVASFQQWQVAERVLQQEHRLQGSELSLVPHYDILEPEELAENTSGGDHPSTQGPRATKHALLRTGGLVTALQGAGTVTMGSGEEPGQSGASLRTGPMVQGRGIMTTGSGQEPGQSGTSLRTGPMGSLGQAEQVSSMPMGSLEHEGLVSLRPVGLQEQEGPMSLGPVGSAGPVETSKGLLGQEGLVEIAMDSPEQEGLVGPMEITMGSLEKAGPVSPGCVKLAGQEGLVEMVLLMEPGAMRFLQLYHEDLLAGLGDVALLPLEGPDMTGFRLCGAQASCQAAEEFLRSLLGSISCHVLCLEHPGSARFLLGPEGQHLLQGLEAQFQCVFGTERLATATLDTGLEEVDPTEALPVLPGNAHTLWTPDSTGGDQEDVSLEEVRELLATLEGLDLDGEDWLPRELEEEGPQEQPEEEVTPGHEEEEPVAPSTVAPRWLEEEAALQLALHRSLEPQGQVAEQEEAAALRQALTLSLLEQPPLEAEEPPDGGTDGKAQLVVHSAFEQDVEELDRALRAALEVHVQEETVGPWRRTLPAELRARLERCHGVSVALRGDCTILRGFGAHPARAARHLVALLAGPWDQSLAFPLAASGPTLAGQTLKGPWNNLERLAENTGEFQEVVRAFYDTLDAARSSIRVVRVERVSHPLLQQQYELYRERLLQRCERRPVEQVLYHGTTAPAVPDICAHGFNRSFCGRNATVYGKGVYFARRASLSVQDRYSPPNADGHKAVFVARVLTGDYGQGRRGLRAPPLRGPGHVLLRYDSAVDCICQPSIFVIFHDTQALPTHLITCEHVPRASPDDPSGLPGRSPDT

[5] = target: T2, Protein mono-ADP-ribosyltransferase PARP15 (Homo sapiens, UniProt Q460N3); test: Inhibition of full length recombinant His6-tagged PARP15 catalytic domain (unknown origin) expressed in Escherichia coli BL21(DE3) by fluorescence based assay
T2 sequence (Q460N3 whole entry): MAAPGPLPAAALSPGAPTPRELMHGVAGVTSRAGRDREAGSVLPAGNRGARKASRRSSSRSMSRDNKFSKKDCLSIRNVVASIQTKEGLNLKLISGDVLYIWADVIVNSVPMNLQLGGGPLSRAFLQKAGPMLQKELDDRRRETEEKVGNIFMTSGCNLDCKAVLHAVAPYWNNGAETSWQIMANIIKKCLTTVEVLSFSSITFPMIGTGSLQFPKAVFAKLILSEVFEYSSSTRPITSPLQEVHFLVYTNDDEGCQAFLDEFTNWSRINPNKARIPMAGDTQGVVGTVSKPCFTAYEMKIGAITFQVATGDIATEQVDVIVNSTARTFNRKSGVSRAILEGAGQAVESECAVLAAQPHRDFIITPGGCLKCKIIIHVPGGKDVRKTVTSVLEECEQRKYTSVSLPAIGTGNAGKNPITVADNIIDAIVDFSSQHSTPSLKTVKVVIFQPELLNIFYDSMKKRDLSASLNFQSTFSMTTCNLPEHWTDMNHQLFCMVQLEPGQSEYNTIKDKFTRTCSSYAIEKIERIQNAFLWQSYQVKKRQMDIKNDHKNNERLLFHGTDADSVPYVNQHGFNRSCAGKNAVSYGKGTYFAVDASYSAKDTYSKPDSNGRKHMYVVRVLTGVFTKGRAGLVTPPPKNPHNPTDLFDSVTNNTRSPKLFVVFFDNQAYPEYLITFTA

[6] = target: Protein mono-ADP-ribosyltransferase PARP14 (Homo sapiens) (UniProt Q460N5); test: Inhibition of full length recombinant His6-tagged human PARP14 WWA/catalytic domain expressed in Escherichia coli BL21(DE3) at 5 uM preincubated for 15 mins followed by biotinylated NAD+ addition by chemiluminescence assay relative to control
Chain of Protein mono-ADP-ribosyltransferase PARP14 (Homo sapiens) (Q460N5 whole entry, the tested form may be a part): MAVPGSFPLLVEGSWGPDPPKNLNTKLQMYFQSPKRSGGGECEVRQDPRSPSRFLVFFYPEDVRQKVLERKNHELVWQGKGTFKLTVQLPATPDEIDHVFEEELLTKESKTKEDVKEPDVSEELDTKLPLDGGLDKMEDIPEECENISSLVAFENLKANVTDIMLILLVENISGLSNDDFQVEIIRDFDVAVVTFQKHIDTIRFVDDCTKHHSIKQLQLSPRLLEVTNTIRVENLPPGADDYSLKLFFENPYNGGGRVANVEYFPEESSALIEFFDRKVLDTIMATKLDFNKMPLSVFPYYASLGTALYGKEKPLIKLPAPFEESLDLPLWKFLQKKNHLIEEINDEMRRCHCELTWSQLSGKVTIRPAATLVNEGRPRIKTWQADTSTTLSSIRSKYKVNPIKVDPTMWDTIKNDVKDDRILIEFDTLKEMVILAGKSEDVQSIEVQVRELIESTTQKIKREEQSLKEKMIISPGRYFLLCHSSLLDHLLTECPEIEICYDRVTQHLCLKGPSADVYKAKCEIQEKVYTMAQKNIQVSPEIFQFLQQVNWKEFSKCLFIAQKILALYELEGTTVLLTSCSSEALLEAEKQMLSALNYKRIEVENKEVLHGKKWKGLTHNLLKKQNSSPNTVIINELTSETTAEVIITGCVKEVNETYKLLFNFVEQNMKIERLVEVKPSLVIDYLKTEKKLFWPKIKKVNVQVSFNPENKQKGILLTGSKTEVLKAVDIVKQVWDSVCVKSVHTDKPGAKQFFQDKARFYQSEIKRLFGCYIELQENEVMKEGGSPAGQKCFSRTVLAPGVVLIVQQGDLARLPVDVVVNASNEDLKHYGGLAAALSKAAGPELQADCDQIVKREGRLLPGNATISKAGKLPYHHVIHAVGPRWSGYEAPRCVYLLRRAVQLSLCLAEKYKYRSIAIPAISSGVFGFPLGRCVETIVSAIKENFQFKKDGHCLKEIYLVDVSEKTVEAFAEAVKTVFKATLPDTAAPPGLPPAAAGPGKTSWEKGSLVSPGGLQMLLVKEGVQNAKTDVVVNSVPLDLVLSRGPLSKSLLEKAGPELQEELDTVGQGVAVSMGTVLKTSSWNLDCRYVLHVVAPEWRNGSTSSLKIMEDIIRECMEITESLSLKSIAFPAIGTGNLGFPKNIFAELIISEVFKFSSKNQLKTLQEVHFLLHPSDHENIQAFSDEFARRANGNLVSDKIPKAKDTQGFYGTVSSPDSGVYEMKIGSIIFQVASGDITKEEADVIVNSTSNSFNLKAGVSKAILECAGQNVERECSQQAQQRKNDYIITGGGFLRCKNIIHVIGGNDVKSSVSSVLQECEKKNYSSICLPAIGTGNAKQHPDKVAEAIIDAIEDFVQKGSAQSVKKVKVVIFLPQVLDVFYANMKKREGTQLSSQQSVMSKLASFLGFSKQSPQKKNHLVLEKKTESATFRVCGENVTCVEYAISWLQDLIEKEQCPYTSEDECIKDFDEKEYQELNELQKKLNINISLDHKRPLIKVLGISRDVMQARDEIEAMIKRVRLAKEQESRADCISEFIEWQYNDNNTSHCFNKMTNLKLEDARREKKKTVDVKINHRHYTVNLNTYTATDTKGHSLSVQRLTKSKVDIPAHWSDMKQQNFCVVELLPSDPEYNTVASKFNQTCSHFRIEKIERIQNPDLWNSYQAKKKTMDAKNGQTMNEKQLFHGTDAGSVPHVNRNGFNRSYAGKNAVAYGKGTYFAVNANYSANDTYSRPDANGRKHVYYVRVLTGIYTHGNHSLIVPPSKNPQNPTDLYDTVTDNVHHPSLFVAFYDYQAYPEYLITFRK

solubility thermodynamic at 24 h [1] [µM]	remaining at 2 h, 5 µM [2] [%]	remaining at 2 h, 5 µM [3] [%]	IC50 [4] [µM]	SMILES	also measured
–	–	–	0.51	NC(=O)c1ccc(Oc2cccc(C(N)=O)c2)cc1	–
–	–	–	1.5	NC(=O)c1ccc(Oc2cccc(C(=O)N3CCC(O)(c4ccccc4)CC3)c2)cc1	–
–	–	–	1.06	CCOC(=O)C1CCN(C(=O)c2cccc(Oc3ccc(C(N)=O)cc3)c2)CC1	inhibition [6]: 51%

More lines, now with the values behind:

SMILES	solubility thermodynamic at 24 h [1] [µM]	remaining at 2 h, 5 µM [2] [%]	remaining at 2 h, 5 µM [3] [%]	IC50 [4] [µM]	also measured
NC(=O)c1ccc(Oc2cccc(C(=O)N3CCC(c4ccc(F)cc4)CC3)c2)cc1	42 (≈ 17.6 µg/mL)	16.4	91.8	–	–
NC(=O)c1ccc(Oc2ccc(C(=O)N3CCC(c4ccc(F)cc4)CC3)cc2)cc1	–	–	–	1.65	–
NC(=O)c1ccc(Oc2cccc(C(=O)N3CCN(c4ccc(F)cc4)CC3)c2)cc1	60 (≈ 25.2 µg/mL)	39	88.1	–	–
NC(=O)c1ccc(Oc2cccc(C(=O)N3CCC(c4ccccc4F)CC3)c2)cc1	–	–	–	0.47	–
NC(=O)c1ccc(Oc2ccc(C(N)=O)cc2)cc1	–	–	–	–	IC50 [5]: 4.17 µM
NC(=O)c1ccc(Oc2ccc(C(=O)N3CCC(c4cccc(F)c4)CC3)cc2)cc1	–	–	–	1.22	–
NC(=O)c1ccc(Oc2cccc(C(=O)N3CCC(O)(c4ccc(F)cc4)CC3)c2)cc1	242 (≈ 105 µg/mL)	45.3	100	–	–
